Results from patent EP0129409B1, “Thiazolo - and thiazinobenzimidazoles” (JOHN WYETH & BROTHER LIMITED, priority 1983, dated 1984).
Where two headings read alike, the source gives them in different places.

Tests used:
[1] = biological target: T1, H⁺/K⁺ ATPase (Oryctolagus cuniculus, UniProt P27112); assay: inhibition of 14C-aminopyrine uptake in rabbit isolated gastric glands stimulated by DBcAMP or high K+; format: cell-based; settings: % inhibition of the maximum response to the secretagogue; for inhibition at 10 µM: at 10⁻⁵M
T1 construct: Rabbit gastric glands are isolated from gastric mucosa from the corpus region of the stomach; from tissue; host or cells: rabbit isolated gastric glands (gastric mucosa, corpus region of the stomach)
Description: Compounds of formula I were also tested for anti-secretory activity by their ability to inhibit the highly specific proton transporting enzyme H⁺/K⁺ ATPase.
Potential H⁺/K⁺ ATPase inhibitors were evaluated by a technique involving the measurement of aminopyrine accumulation in rabbit isolated gastric glands. Aminopyrine accumulates in acid-secreting cells; therefore, uptake of aminopyrine is increased by secretagogues and an inhibitor of acid secretion will reduce the response to one or more secretagogues depending upon its site of action. […] The following test procedure is used: Rabbit gastric glands are isolated from gastric mucosa from the corpus region of the stomach by a method based on one described by Berglindh T., Obrink K.J., Acta Physiol. Scand.
Results are expressed as the % inhibition of the maximum response to the secretagogue induced by the test compound. An inhibitor of H⁺/K⁺ ATPase would be expected to reduce the response to both secretagogues.

[2] = tested on: stress-induced erosion; assay: stress-induced erosion test of Senay and Levine (anti-ulcer activity); format: in vivo; settings: decrease in ulcer formation as percentage of control score, rats, oral
Description: Anti-ulcer activity was determined by the stress-induced erosion test of Senay and Levine, Proc. Soc. Exp. Biol. Med., 124, 1221-3 (1967). The procedure used was as follows.
Male rats, weighing between 80 and 120 gms. were fasted overnight with water ad lib. The rats were then divided into groups of six and dosed orally with the test drug in the form of a solution or with the vehicle alone, 0.5% carboxymethylcellulose, in a volume of 10ml/kg.
After 30 minutes the rats were inserted into aluminium restraining tubes measuring 1⁵/₈ inches in diameter by 5 inches and placed in the cold (4±1°C) for 3 hours. Immediately after cold exposure the rats were killed with intracranial alcohol and their stomachs excised and opened along the greater curvature. Each stomach was washed gently free of contents with warm tap water and pinned out on a board. The condition of the gastric mucosa was then scored from 0 to 6 on the following scale:
The maximum possible score for each animal was 6 and for the group 36. Decrease in ulcer formation was calculated as a percentage of the control score, i.e. [formula] The statistical significance of the effect is assessed by Student's t-test.

[3] = antisecretory activity, test of Shay, Sun and Gruenstein; settings: in vivo
[4] = at 10⁻⁴M, read-out: % Inhibition to stimulation by: DBcAMP
[5] = at 10⁻⁴M, read-out: % Inhibition to stimulation by: K⁺

T1 sequence (P27112 whole entry): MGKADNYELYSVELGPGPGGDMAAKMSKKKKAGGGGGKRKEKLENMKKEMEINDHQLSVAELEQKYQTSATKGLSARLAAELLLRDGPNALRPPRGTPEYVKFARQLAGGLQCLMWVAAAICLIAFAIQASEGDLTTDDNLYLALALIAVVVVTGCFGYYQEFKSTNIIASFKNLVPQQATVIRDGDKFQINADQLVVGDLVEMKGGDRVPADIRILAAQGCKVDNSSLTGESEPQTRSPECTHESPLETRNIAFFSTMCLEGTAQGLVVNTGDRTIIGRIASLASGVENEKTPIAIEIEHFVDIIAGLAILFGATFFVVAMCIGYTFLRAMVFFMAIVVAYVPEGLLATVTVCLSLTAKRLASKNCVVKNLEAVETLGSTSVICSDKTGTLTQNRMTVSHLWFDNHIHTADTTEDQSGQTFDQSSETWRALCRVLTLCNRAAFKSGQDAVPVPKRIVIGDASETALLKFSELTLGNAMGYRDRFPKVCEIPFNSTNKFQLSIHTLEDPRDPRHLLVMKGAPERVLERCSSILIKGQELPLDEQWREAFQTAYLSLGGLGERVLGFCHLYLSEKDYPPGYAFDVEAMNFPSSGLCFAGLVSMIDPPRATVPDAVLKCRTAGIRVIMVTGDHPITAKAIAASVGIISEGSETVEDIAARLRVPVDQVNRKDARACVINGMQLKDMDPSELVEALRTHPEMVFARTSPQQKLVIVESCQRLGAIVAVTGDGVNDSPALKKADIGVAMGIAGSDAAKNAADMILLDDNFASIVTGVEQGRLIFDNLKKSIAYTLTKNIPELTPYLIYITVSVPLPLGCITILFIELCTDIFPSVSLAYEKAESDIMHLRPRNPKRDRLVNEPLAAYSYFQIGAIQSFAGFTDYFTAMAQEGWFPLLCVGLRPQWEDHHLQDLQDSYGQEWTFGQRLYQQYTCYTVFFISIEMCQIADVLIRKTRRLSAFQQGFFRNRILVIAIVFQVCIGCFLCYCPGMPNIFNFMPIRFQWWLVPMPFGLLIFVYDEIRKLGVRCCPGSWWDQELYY
T1 sequence (P18597 whole entry partner): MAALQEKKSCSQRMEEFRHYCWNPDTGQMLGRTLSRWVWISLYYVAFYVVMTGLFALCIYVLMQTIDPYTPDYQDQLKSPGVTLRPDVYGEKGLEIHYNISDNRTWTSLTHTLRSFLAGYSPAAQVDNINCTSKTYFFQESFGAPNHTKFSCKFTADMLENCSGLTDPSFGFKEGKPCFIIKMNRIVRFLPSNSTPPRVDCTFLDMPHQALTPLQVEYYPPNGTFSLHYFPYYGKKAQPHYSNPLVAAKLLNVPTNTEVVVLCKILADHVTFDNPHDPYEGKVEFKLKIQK

Row | inhibition at 100 µM [1, 4] [%] | inhibition at 100 µM [1, 5] [%] | Compound | Antisecretory activity [3] | further results
1 | 90 | 187 | Cc1ccc(C2Cn3c(nc4cc(Cl)c(Cl)cc43)S2)cn1 (centres unmarked) [Example 6, 6,7-Dichloro-2,3-dihydro-2-(6-methylpyrid-3-yl)thiazolo-[3,2-a]benzimidazole] |  | 
2 |  |  | c1ccc(C2Cn3c(nc4ccccc43)S2)cc1 (centres unmarked) [Example 3, 2,3-Dihydro-2-phenylthiazolo[3,2-a]benzimidazole] |  | Inhibition ([2]; Dose 100 mg/kg): 74%
3 | 30 | 209 | Cc1cc2nc3n(c2cc1C)CC(c1ccccn1)[S+]3[O-] (centres unmarked) [Example 13, 2,3-Dihydro-6,7-dimethyl-2-(2-pyridyl)thiazolo[3,2-a]-benzimidazole-1-oxide] | particularly active | 
4 |  |  | 2,3-Dihydro-6-methyl-2-(2-pyridyl)thiazolo[3,2-a]-benzimidazole and 2,3-Dihydro-7-methyl-2-(2-pyridyl)-thiazolo [3,2-a]benzimidazole [Example 7] | particularly active | 
5 |  |  | 2,3-Dihydro-6-methyl-2-(2-pyridyl)thiazolo[3,2-a]-benzimidazole-1-oxide and 2,3-Dihydro-7-methyl-2-(2-pyridyl)thiazolo[3,2-a]benzimidazole-1-oxide [Example 10] | particularly active | 
6 |  |  | 6-Ethoxy-2-(2-pyridyl)thiazolo[3,2-a]-benzimidazole and 7-ethoxy-2-(2-pyridyl)thiazolo[3,2-a]benzimidazole [Example 24] |  | % Inhibition to stimulation by: DBcAMP ([1]; at 10⁻⁴M, 100 µM): 68% at 10⁻⁴M; % Inhibition to stimulation by: K⁺ ([1]; at 10⁻⁴M, 100 µM): 162% at 10⁻⁴M
7 | 50.5 |  | Clc1cc2nc3n(c2cc1Cl)CC(c1ccccn1)S3 (centres unmarked) [Example 8, 6,7-Dichloro-2,3-dihydro-2-(2-pyridyl)thiazolo[3,2-a]-benzimidazole] |  | 
8 |  |  | Cc1cc2nc3n(c2cc1C)CC(c1ccccn1)S3 (centres unmarked) [Example 9, 2,3-Dihydro-6,7-dimethyl-2-(2-pyridyl)thiazolo[3,2-a]-benzimidazole] | particularly active | Inhibition ([2]; Dose 100 mg/kg): 82%
9 |  |  | c1ccc(C2Cn3c(nc4ccccc43)S2)nc1 (centres unmarked) [Example 1, 2,3-Dihydro-2-(2-pyridyl)thiazolo[3,2-a]benzimidazole] | particularly active | Inhibition ([2]; Dose 30 mg/kg): 86%; Inhibition ([2]; Dose 100 mg/kg): 75%
10 | 74 | 91 | [O-][S+]1c2nc3ccccc3n2CC1c1ccccn1 (centres unmarked) [Example 2, 2,3-Dihydro-2-(2-pyridyl)thiazolo[3,2-a]benzimidazole-1-oxide] | particularly active | inhibition at 10 µM ([1]; read-out: % Inhibition to stimulation by: DBcAMP): 73%; inhibition at 10 µM ([1]; read-out: % Inhibition to stimulation by: K⁺): 26%
11 | 56 | 142 | CCc1ccc(-c2cn3c(nc4ccccc43)s2)nc1 [Example 27, 2-(2-(5-Ethylpyridyl))thiazolo[3,2-a]benzimidazole] |  | 
12 | 22 | 381 | c1ccc(-c2cccc(-c3cn4c(nc5ccccc54)s3)n2)cc1 [Example 37, 2-[2-(6-Phenylpyridyl)]thiazolo[3,2-a]benzimidazole] |  | 
13 |  |  | 6-Chloro-2,3-dihydro-2-(2-pyridyl)thiazolo[3,2-a]-benzimidazole-1-oxide and 7-chloro-2,3-dihydro-2-(2-pyridyl)-thiazolo[3,2-a]benzimidazole-1-oxide [Example 18] | particularly active | 
